According to US11446254B2, “Drug carrier having self-assembled 3-D nucleic acid nanostructure” (KOREA INSTITUTE OF SCIENCE AND TECHNOLOGY, priority 2014, dated 2022):

System: SCC7 cells
Type: in vivo
Details: 18 days therapy
Method: A balb/c nude mouse (5 weeks old, male) was used as an experimental animal group, and a tumor was formed by subcutaneously inoculating SCC7 cells (1.0×10^6 cells suspended in the culture medium) into the left thigh of the mouse. When the tumor volume became approximately 50 mm^3, the tumor was used for the experiment.
For the selective therapy of cancer tissue, DOX was each loaded into L-Td55 and L-Td92, which are a carrier having cancer tissue selectivity.
The therapy experiment was performed by classifying the mice into total six groups (PBS, L-Td55, L-Td92, free DOX, DOX@L-Td55, and DOX@L-Td92), and 7 mice per group were used. Before the therapy was performed each time, the tumor volume and the mouse body weight were measured. In this case, the tumor volume was calculated by a method of (minor axis^2*major axis)/2. Each sample was injected into the caudal vein of the mice completely subjected to measurement (see Slide #2 for concentration), the therapy was performed once every three days, and the therapy was performed total 6 times.

With `COc1cccc2c1C(=O)c1c(O)c3c(c(O)c1C2=O)C[C@@](O)(C(=O)CO)C[C@@H]3O[C@H]1C[C@H](N)[C@H](O)[C@H](C)O1` [free DOX, doxorubicin] as the compound, how does the Therapeutic effect read?
The Therapeutic effect was “slight therapeutic effects”.
